The text below walks through data of US20240207286A1, “ASBT INHIBITORS IN THE TREATMENT OF RENAL DISEASES” (Albireo AB, priority 2022, published 2024).

Structures are written as SMILES.

One series concerns the target T1, hIBAT (Homo sapiens, UniProt Q12908).
T1 sequence (Q12908 1-348): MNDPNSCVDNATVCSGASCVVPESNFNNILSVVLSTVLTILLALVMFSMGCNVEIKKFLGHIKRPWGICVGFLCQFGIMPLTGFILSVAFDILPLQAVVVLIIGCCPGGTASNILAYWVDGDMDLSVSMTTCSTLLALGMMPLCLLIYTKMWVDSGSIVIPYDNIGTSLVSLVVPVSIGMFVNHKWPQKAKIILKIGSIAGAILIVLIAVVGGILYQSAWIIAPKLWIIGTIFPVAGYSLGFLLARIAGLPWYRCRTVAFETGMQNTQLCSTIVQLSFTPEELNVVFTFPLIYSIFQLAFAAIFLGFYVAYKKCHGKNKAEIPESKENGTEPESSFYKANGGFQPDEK
In words: hIBAT potency (IC50). The format is cell-based. The method, then: (§1) ASBT inhibitor compounds 1 to 5 were used in the experiments described herein. Values were determined using the assays described in e.g. WO 2020/161217.

The nature of the next series: Bioavailability in mice. The note with it: C57BL/6, mouse, in vivo. The procedure: as §1
Series [1] concerns BDL mice. The experiment in a line: Short-term effect of ASBT inhibition on urinary bile acid excretion in BDL mice (Example 2). The note with it: female BDL mice; 15, 30, 60 or 120 mg/kg p.o. twice daily for 5 days (day 7-11); all treated groups. The format is in vivo, mice (C57BL/6n). The method, then: The short-term effect of oral administration of Compound 1 to BDL mice on the urinary excretion of bile acids was evaluated.
Female mice (C57BL/6n) were used. After completion of quarantine and acclimatization period, animals were randomized based on body weight into experimental groups (n=4-7 mice in each). On day 0, animals underwent bile duct ligation. Compound 1 was administered orally by gavage twice per day. Spontaneous urine samples were collected before BDL and on days 7, 8, 9, 10, 11 and 12 after BDL by cannulation of the urinary bladder, and the concentration of bile acids in urine was determined.

The subject of series [2] is BDL mice. The experiment in a line: Long-term effect on cholemic nephropathy in bile duct ligated mice, 6 weeks (Example 3). The format is in vivo, mice (C57BL/6n). The procedure:
The long-term effect of Compound 1 on kidney injury in BDL mice was studied by histology, clinical chemistry and intravital imaging.
[…] […] On day 0, animals underwent bile duct ligation or sham surgery. Compound 1 was administered orally by gavage twice per day. Spontaneous urine samples were collected before BDL as well as on day 1 and weeks 1, 2, 3, 4, 5, and 6 after BDL by cannulation of the urinary bladder. Blood, urine, bile and tissue samples were collected at the end (week 6) of the experiment.

The test system of series [3] is BDL mice. In words: Therapeutic time window in BDL mice, 28 days treatment (Example 4). In kind it is in vivo, mice (C57BL/6n). The note with it: 60 mg/kg p.o. twice daily for 28 days. The method, then: The effect of the time period before start of treatment with Compound 1 on kidney injury in BDL mice was evaluated.
Male mice (C57BL/6n) were used. After completion of quarantine and acclimatization period, animals were randomized based on body weight into experimental groups (n=7 mice per group). On day 0, animals underwent bile duct ligation or sham surgery. From day 3, 21, 42 or 63, animals were treated for 28 days with either vehicle or with Compound 1 at a dose of 60 mg/kg, as shown in Table 4 below. Compound 1 was administered p.o. twice per day. The animals were weighed every day. Blood, urine, bile and tissue samples were collected at the end of the experiment.

For series [4], the system named is BDL mice. The experiment in a line: Comparison of ASBT inhibitors in BDL mice, 19 days treatment (Example 5). The format is in vivo, mice (C57BL/6n). The note with it: male BDL mice; for serum bile acids / urine bile acids: p.o. once daily for 19 days, Compound 1 60 mg/kg, Compound 2 3 and 10 mg/kg; for urinary NGAL: p.o. once daily, after treatment for 18 days. The procedure:
Male mice (C57BL/6n) were used. After completion of quarantine and acclimatization period, animals were randomized based on body weight into experimental groups (n=12 mice per bile duct ligation group along with 5 sham operated controls). On day 0, animals underwent bile duct ligation or sham surgery. The ASBT inhibitors were administered p.o. once daily. The animals were weighed every day. At day 21, blood samples were taken 2 and 6 hours after the final dose. At day 24, animals were sacrificed and samples (urine and blood; liver, kidney, heart and spleen tissues) were collected and analysed.

The nature of the next series: Caco-2 permeability. The format is in vitro ADME. The note with it: human; for Papp A→B: A2B; for Papp B→A: B2A.
Description: Some ASBT inhibitors may show improved or optimal permeability. The permeability may be measured in Caco2 cells, and values are given as Papp (apparent permeability) values in cm/s. In some embodiments, the permeability is between about 0.01×10^−6 cm/s and about 50×10^−6 cm/s, such as between about 0.05×10^−6 cm/s and about 40×10^−6 cm/s, or such as between about 0.1×10^−6 cm/s and about 30×10^−6 cm/s. In some embodiments, the permeability is greater than at least about 0.1×10^−6 cm/s, such as greater than about 0.2×10^−6 cm/s, such as greater than about 0.4×10^−6 cm/s, such as greater than about 0.7×10^−6 cm/s, such as greater than about 1.0×10^−6 cm/s, such as greater than about 2×10^−6 cm/s, such as greater than about 3×10^−6 cm/s, such as greater than about 5×10^−6 cm/s, such as greater than about 7×10^−6 cm/s, such as greater than about 10×10^−6 cm/s, such as greater than about 15×10^−6 cm/s.
as §1

The subject of series [5] is BDL mice. In words: Comparison of ASBT inhibitors in BDL mice, 5 days treatment (Example 6). The note with it: male BDL mice; 10 mg/kg p.o. once daily for 5 days. In kind it is in vivo, mice (C57BL/6n). The method, then:
Male mice (C57BL/6n) were used. After completion of quarantine and acclimatization period, animals were randomized based on body weight into experimental groups (n=10 mice per bile duct ligation group). On day 1, animals underwent bile duct ligation. The ASBT inhibitors were administered p.o. once daily. The animals were weighed every day. At day 6, animals were moved to individual cages for cumulative overnight fecal collection (day 6 to 7). At day 8, blood samples were taken 2 and 6 hours after the final dose. Animals were then sacrificed and samples (urine and blood; liver, kidney and ileum tissues) were collected and analysed.

The conditions of series [6]: in vivo; cited from earlier work.
Setting [7] is: female BDL mice, 60 mg/kg p.o. twice daily for 6 weeks.
Setting [8] is: male BDL mice, dosing started on Day 3.

In turn, `CCCCC1(CC)CN(c2ccccc2)c2cc(SC)c(O/C=C(\F)C(=O)O)cc2S(=O)(=O)C1` (stereo not shown) [Compound 1, (Z)-3-((3-butyl-3-ethyl-7-(methylthio)-1,1-dioxido-5-phenyl-2,3,4,5-tetrahydro-1,5-benzothiazepin-8-yl)oxy)-2-fluoroacrylic acid] gave an IC50 on hIBAT of 21 nM. The compound further registered a bioavailability in the series “Bioavailability in mice” of 44%. In addition, in the series with BDL mice [1], the “concentrations of bile acids in urine, fold higher after treatment” value is “at least 20 fold”. In the series on BDL mice [2] (setting [7]), the “body weight loss due to BDL” value was “strongly ameliorated”; the “severe fibrosis and cystic dilatation of renal tubules (histology)” value is “antagonized by Compound 1 almost to the levels of control animals without BDL”; the “urinary BA” value is “massively increased”; the “urinary KIM-1” value is given as “strongly reduced”. For the same compound, in the series on BDL mice [2] (setting [7]), the “urinary NGAL” value is recorded as “strongly reduced” and the “vascular leakage in kidneys (intravital imaging with Evans blue)” value is “completely reversed”. Besides, in the series with BDL mice [2] (female BDL mice, 60 mg/kg p.o. twice daily, about 50% died in BDL-vehicle group), the “mortality in the 6 week-period” value is “no mortality”. In addition, in the series with BDL mice [2] (male mice, 6 per group), the “therapeutic efficacy in similarly designed study with male mice” value was “confirmed the therapeutic efficacy”. Further, in the series on BDL mice [2] (po, 60 mg/kg, 1008 h), the “decrease of serum BA” value is “about 90%”. In the series on BDL mice [3] (dosing started on Day 21), the body weight loss entry is “reversed body weight loss” and the renal injury result was “almost completely reversed”. Besides, in the series with BDL mice [3] (dosing started on Day 42), the body weight loss result is “reversed body weight loss” and the renal injury result was “partially reversed”. The “effect on renal injury and body weight loss” value with BDL mice [3] (dosing started on Day 63) is recorded as “minimal effects”. Further, in the series with BDL mice [3] (setting [8]), the body weight loss result is “reversed body weight loss” and the renal injury result is on record as “completely prevented”. In addition, in the series with BDL mice [4], the serum bile acids result is given as “lower serum bile acids”, the urine bile acids entry was “increase urine bile acids” and the “urinary NGAL” value is “lowered urinary NGAL”.
In the series “Caco-2 permeability”, `CCCCC1(CCCC)CN(c2ccccc2)c2cc(SC)c(OCCC(=O)O)cc2S(=O)(=O)N1` [Compound 2, 3-((3,3-dibutyl-7-(methylthio)-1,1-dioxido-5-phenyl-2,3,4,5-tetrahydro-1,2,5-benzothiadiazepin-8-yl)oxy)propanoic acid] yielded an apparent permeability from apical to basolateral (Papp A→B) of 9.2 ×10⁻⁶ cm/s and a basolateral-to-apical permeability (Papp B→A) of 0.9 ×10⁻⁶ cm/s. In addition, in the series with BDL mice [4], the serum bile acids entry is “lower serum bile acids”, the urine bile acids result is “increase urine bile acids” and the “urinary NGAL” value is listed as “lowered urinary NGAL”.
Consider `CCCCC1(C)CN(c2ccccc2)c2cc(SC)c(CSCC(=O)O)cc2S(=O)(=O)C1` (stereo not shown) [Compound 3, 2-(((3-butyl-3-methyl-7-(methylthio)-1,1-dioxido-5-phenyl-2,3,4,5-tetrahydro-1,5-benzothiazepin-8-yl)methyl)thio)acetic acid], for which, in “Caco-2 permeability”, the apparent permeability from apical to basolateral (Papp A→B) was 29.3 ×10⁻⁶ cm/s and the Papp B→A is 25.3 ×10⁻⁶ cm/s.
Turning to `CCCCC1(CC)CN(c2ccc(F)cc2)c2cc(SC)c(OCC(=O)O)cc2S(=O)(=O)C1` (stereo not shown) [Compound 5, 2-((3-butyl-3-ethyl-5-(4-fluorophenyl)-7-(methylthio)-1,1-dioxido-2,3,4,5-tetrahydro-1,5-benzothiazepin-8-yl)oxy)acetic acid], the midpoint of inhibition at hIBAT, the IC50, lay at 2.4 nM. Further, in the series “Caco-2 permeability”, the apical-to-basolateral permeability (Papp A→B) worked out at 8.7 ×10⁻⁶ cm/s and the Papp B→A amounted to 12.9 ×10⁻⁶ cm/s. Moreover, the “urinary NGAL” value in the series with BDL mice [5] is given as “significantly reduced”.
For `CCCCC1(CCCC)CS(=O)(=O)c2ccc(N(C)C)cc2[C@@H](c2ccc(OCc3ccc(C[N+]45CCN(CC4)CC5)cc3)cc2)[C@H]1O.[Cl-]` [maralixibat, 1-{[4-({4-[(4R,5R)-3,3-dibutyl-7-(dimethylamino)-4-hydroxy-1,1-dioxo-2,3,4,5-tetrahydro-1H-1λ^6-benzothiepin-5-yl]phenoxy}methyl)phenyl]methyl}-1,4-diazabicyclo[2.2.2]octan-1-ium chloride], the “systemic absorption following oral administration” value in [6] is “less than 10%”.

One may read the IC50 as the concentration needed to halve the response being measured. The low end stands for inhibition by little substance, the high end for a need for much substance. A word on the bioavailability: it is the share of a dose that reaches the circulation, judged against a reference dose that is usually intravenous. The low end stands for little systemic uptake, the high end for much systemic uptake. One may read the Papp A→B as how fast a substance crosses the layer from the apical side. Read a high Papp A→B as ready permeation. Broadly, the Papp B→A is the apparent permeability from the basolateral to the apical side of a cell layer.
